Measurements taken from patent US11345694B2, “Antibacterial compounds” (DISCUVA LTD., priority 2017, dated 2022).
≈ marks a conversion by molar mass, not a printed value.

How the values were obtained:
[1] = tested on: K. pneumoniae NCTC 13438 (KP1); experiment: MIC broth microdilution; format: cell-based, Klebsiella pneumoniae; conditions: Klebsiella pneumoniae, NCTC13438
Method: (§1) Minimum Inhibitory Concentrations (MICs) versus planktonic bacteria are determined by the broth microdilution procedure according to the guidelines of the Clinical and Laboratory Standards Institute (Clinical and Laboratory Standards Institute. Methods for Dilution Antimicrobial Susceptibility Tests for Bacteria That Grow Aerobically; Approved Standard-tenth Edition. CLSI document M07-A10, 2015). The broth dilution method involves a two-fold serial dilution of compounds in 96-well microtitre plates, giving a final concentration range of 0.39-200 μM and a maximum final concentration of 2% DMSO. The bacterial strains tested include Escherichia coli K12 (EC), E. coli NCTC 13441 (UPEC), Staphylococcus aureus ATCC 35556 (SA), Acinetobacter baumannii ATCC 17978 (AB), Pseudomonas aeruginosa ATCC 33359 (PA), Enterobacter cloacae DSM 30054 (Ed), Serratia marcescens SL1344 (Sm), Salmonella typhimurium XNAA5 (St), Klebsiella pneumoniae ATCC 10031 (KP2), K. pneumoniae NCTC 13438 (KP1), K. pneumoniae ATCC 700603 (KP3), Klebsiella pneumoniae ATCC 51504 (KP4), K. pneumoniae H154680676 (KP5), K. pneumoniae H154020667 (KP6), K. pneumoniae H154640784 (KP7), K. pneumoniae H154600588 (KP8), K. pneumoniae H154300688 (KP9), K. pneumoniae H151440671 (KP10). Strains are grown in cation-adjusted Müller-Hinton broth or on Luria Bertoni agar at 37° C. in an ambient atmosphere. The MIC is determined as the lowest concentration of compound that inhibits growth following a 20-24 hour incubation period.

[2] = tested on: human hepatocarcinoma cell line ATCC HB-8065 (HepG2); experiment: Human cell viability (CellTiter-Glo); format: cell-based; conditions: Homo sapiens; HepG2 cells, 24 h incubation, CellTiter-Glo luminescence, 0.2-100 μM; read-out: IC50 values against the HepG2 cell line
Method: Compounds are assessed for potential non-specific cytotoxic effects against the human hepatocarcinoma cell line ATCC HB-8065 (HepG2). HepG2 cells are seeded at 20,000 cells/well in 96-well microtitre plates in minimal essential medium (MEM) supplemented with a final concentration of 10% FBS. After 24 h, compound dilutions are prepared in MEM supplemented with a final concentration of 1% FBS, and added to the cells. Compounds are tested in two-fold serial dilutions over a final concentration range of 0.2-100 μM in a final DMSO concentration of 1% vol/vol. Thioridazine is used as a positive control. Cells are incubated with compound at 37° C. and 5% CO2 for a further 24 h, after which time the CellTiter-Glo reagent (Promega) is added. Luminescence is measured on a Perkin Elmer Envision plate reader. Data are analysed using a 4 parameter logistic regression to determine the concentration of compound that inhibits cell viability by fifty percent (IC50).

[3] = tested on: Escherichia coli K12 (EC); experiment: MIC broth microdilution; format: cell-based
Method: as §1

[4] = tested on: Acinetobacter baumannii ATCC 17978 (AB); experiment: MIC broth microdilution; format: cell-based; conditions: ATCC17978
Method: as §1

[5] = tested on: Klebsiella pneumoniae ATCC 10031 (KP2); experiment: MIC broth microdilution; format: cell-based; conditions: ATCC10031
Method: as §1

[6] = tested on: Staphylococcus aureus ATCC 35556 (SA); experiment: MIC broth microdilution; format: cell-based; conditions: ATCC35556
Method: as §1

[7] = tested on: Pseudomonas aeruginosa ATCC 33359 (PA); experiment: MIC broth microdilution; format: cell-based; conditions: ATCC33359
Method: as §1

[8] = tested on: E. coli NCTC 13441 (UPEC); experiment: MIC broth microdilution; format: cell-based, Escherichia coli; conditions: Escherichia coli, NCTC13441
Method: as §1

Row | SMILES | MIC [1] [µM] | IC50 [2] [µM] | MIC [3] [µM] | MIC [4] [µM] | MIC [5] [µM] | MIC [6] [µM] | MIC [7] [µM] | MIC [8] [µM]
1 | Cc1cc(-c2[nH]c(N(C)C)nc2-c2ccc3c(c2)OCCO3)ccn1 [Example 75, 4-(2,3-Dihydrobenzo[b][1,4]dioxin-6-yl)-N,N-dimethyl-5-(2-methylpyridin-4-yl)-1H-imidazol-2-amine] | > 100 | > 100 | 10 to 100 (≈ 3.36 to 33.6 µg/mL) | > 100 | 1 to 10 (≈ 0.336 to 3.36 µg/mL) | > 100 | > 100 | 10 to 100 (≈ 3.36 to 33.6 µg/mL)
2 | Cc1cc(-c2[nH]c(=S)[nH]c2-c2ccc3c(c2)OCCO3)ccn1 [Example 81, 4-(2,3-Dihydrobenzo[b][1,4]dioxin-6-yl)-5-(2-methylpyridin-4-yl)-1,3-dihydro-2H-imidazole-2-thione] | > 100 | > 100 | 10 to 100 (≈ 3.25 to 32.5 µg/mL) | > 100 | ≤ 1 | > 100 | > 100 | 10 to 100 (≈ 3.25 to 32.5 µg/mL)
3 | Nc1cc(-c2[nH]c(N)nc2-c2ccc3c(c2)NCCO3)ccn1 [Example 42, 4-(2-Amino-4-(3,4-dihydro-2H-benzo[b][1,4]oxazin-6-yl)-1H-imidazol-5-yl)pyridin-2-amine] | 10 to 100 (≈ 3.08 to 30.8 µg/mL) | > 100 | 1 to 10 (≈ 0.308 to 3.08 µg/mL) | > 100 | ≤ 1 | > 100 | > 100 | 1 to 10 (≈ 0.308 to 3.08 µg/mL)
4 | Nc1cc(-c2[nH]c(N)nc2-c2ccc3c(c2)CCO3)ccn1 [Example 8, 4-(2-Amino-4-(2,3-dihydrobenzofuran-5-yl)-1H-imidazol-5-yl)pyridin-2-amine] | 10 to 100 (≈ 2.93 to 29.3 µg/mL) | > 100 | ≤ 1 | > 100 | ≤ 1 | > 100 | > 100 | ≤ 1
5 | Cc1cc(-c2nc(N)[nH]c2-c2ccc(O)c(F)c2)ccn1 [Example 15, 4-(2-Amino-4-(2-methylpyridin-4-yl)-1H-imidazol-5-yl)-2-fluorophenol] | 10 to 100 (≈ 2.84 to 28.4 µg/mL) | > 100 | 10 to 100 (≈ 2.84 to 28.4 µg/mL) | > 100 | ≤ 1 | > 100 | > 100 | 1 to 10 (≈ 0.284 to 2.84 µg/mL)
6 | Cc1cc(-c2[nH]c(N)nc2-c2cc3c(cc2F)OCCO3)ccn1 [Example 59, 4-(7-Fluoro-2,3-dihydrobenzo[b][1,4]dioxin-6-yl)-5-(2-methylpyridin-4-yl)-1H-imidazol-2-amine] | 10 to 100 (≈ 3.26 to 32.6 µg/mL) | > 100 | ≤ 1 | > 100 | ≤ 1 | > 100 | > 100 | ≤ 1
7 | Nc1nc(-c2ccc3c(c2)NCCO3)c(-c2ccnc(C(F)(F)F)c2)[nH]1 [Example 46, 4-(3,4-Dihydro-2H-benzo[b][1,4]oxazin-6-yl)-5-(2-(trifluoromethyl)pyridin-4-yl)-1H-imidazol-2-amine] | 10 to 100 (≈ 3.61 to 36.1 µg/mL) | > 100 | 1 to 10 (≈ 0.361 to 3.61 µg/mL) | > 100 | ≤ 1 | > 100 | > 100 | 1 to 10 (≈ 0.361 to 3.61 µg/mL)
8 | Nc1nc(-c2ccc3c(c2)OCCO3)c(-c2cc[nH]c(=O)c2)[nH]1 [Example 18, 4-(2-Amino-4-(2,3-dihydrobenzo[b][1,4]dioxin-6-yl)-1H-imidazol-5-yl)pyridin-2(1H)-one] | > 100 | > 100 | 10 to 100 (≈ 3.1 to 31 µg/mL) | > 100 | 1 to 10 (≈ 0.31 to 3.1 µg/mL) | > 100 | > 100 | 10 to 100 (≈ 3.1 to 31 µg/mL)
9 | Cc1cc(-c2[nH]c(N)nc2-c2ccc3oc(C)nc3c2)ccn1 [Example 37, 4-(2-Methylbenzo[d]oxazol-5-yl)-5-(2-methylpyridin-4-yl)-1H-imidazol-2-amine] | 10 to 100 (≈ 3.05 to 30.5 µg/mL) | > 100 | 1 to 10 (≈ 0.305 to 3.05 µg/mL) | > 100 | ≤ 1 | > 100 | > 100 | 1 to 10 (≈ 0.305 to 3.05 µg/mL)
10 | CC(=O)N1CCOc2ccc(-c3nc(N)[nH]c3-c3ccnc(C)c3)cc21 [Example 63, 1-(6-(2-Amino-5-(2-methylpyridin-4-yl)-1H-imidazol-4-yl)-2,3-dihydro-4H-benzo[b][1,4]oxazin-4-yl)ethan-1-one] | > 100 | > 100 | 10 to 100 (≈ 3.49 to 34.9 µg/mL) | > 100 | 1 to 10 (≈ 0.349 to 3.49 µg/mL) | > 100 | > 100 | 10 to 100 (≈ 3.49 to 34.9 µg/mL)
11 | Cc1cc(-c2[nH]c(N)nc2-c2ccc3c(c2)NC(=O)CO3)ccn1 [Example 51, 6-(2-Amino-5-(2-methylpyridin-4-yl)-1H-imidazol-4-yl)-2H-benzo[b][1,4]oxazin-3(4H)-one] | 10 to 100 (≈ 3.21 to 32.1 µg/mL) | > 100 | 1 to 10 (≈ 0.321 to 3.21 µg/mL) | > 100 | ≤ 1 | > 100 | > 100 | 1 to 10 (≈ 0.321 to 3.21 µg/mL)

Results, then the compound that gave them:

Row | MIC [1] [µM] | IC50 [2] [µM] | MIC [3] [µM] | MIC [4] [µM] | MIC [5] [µM] | MIC [6] [µM] | MIC [7] [µM] | MIC [8] [µM] | SMILES
12 | 1 to 10 (≈ 0.321 to 3.21 µg/mL) | > 100 | 1 to 10 (≈ 0.321 to 3.21 µg/mL) | > 100 | ≤ 1 | > 100 | > 100 | 1 to 10 (≈ 0.321 to 3.21 µg/mL) | Cc1cc(-c2[nH]c(N)nc2-c2ccc3c(c2)N(C)CCO3)ccn1 [Example 44, 4-(4-Methyl-3,4-dihydro-2H-benzo[b][1,4]oxazin-6-yl)-5-(2-methylpyridin-4-yl)-1H-imidazol-2-amine]
13 | 10 to 100 (≈ 3.39 to 33.9 µg/mL) | > 100 | 1 to 10 (≈ 0.339 to 3.39 µg/mL) | > 100 | ≤ 1 | > 100 | > 100 | 1 to 10 (≈ 0.339 to 3.39 µg/mL) | Cc1cc(-c2[nH]c(N)nc2-c2cc3c(cc2F)OCC(=O)N3)ccn1 [Example 54, 6-(2-Amino-5-(2-methylpyridin-4-yl)-1H-imidazol-4-yl)-7-fluoro-2H-benzo[b][1,4]oxazin-3(4H)-one]
14 | 10 to 100 (≈ 3.02 to 30.2 µg/mL) | > 100 | 1 to 10 (≈ 0.302 to 3.02 µg/mL) | > 100 | ≤ 1 | > 100 | > 100 | 1 to 10 (≈ 0.302 to 3.02 µg/mL) | Cc1cc(-c2[nH]c(N)nc2-c2ccc3nccnc3c2)ccn1 [Example 31, 5-(2-Methylpyridin-4-yl)-4-(quinoxalin-6-yl)-1H-imidazol-2-amine]
15 | 10 to 100 (≈ 3.64 to 36.4 µg/mL) | > 100 | 1 to 10 (≈ 0.364 to 3.64 µg/mL) | > 100 | ≤ 1 | > 100 | > 100 | 1 to 10 (≈ 0.364 to 3.64 µg/mL) | Cc1cc(-c2nc(N)[nH]c2-c2ccc3c(c2)N(CCN)C(=O)CO3)ccn1 [Example 89, 6-(2-Amino-4-(2-methylpyridin-4-yl)-1H-imidazol-5-yl)-4-(2-aminoethyl)-2H-benzo[b][1,4]oxazin-3(4H)-one]
16 | 1 to 10 (≈ 0.322 to 3.22 µg/mL) | > 100 | 1 to 10 (≈ 0.322 to 3.22 µg/mL) | > 100 | ≤ 1 | > 100 | > 100 | ≤ 1 | CNc1cc(-c2[nH]c(N)nc2-c2ccc3c(c2)NCCO3)ccn1 [Example 40, 4-(2-Amino-4-(3,4-dihydro-2H-benzo[b][1,4]oxazin-6-yl)-1H-imidazol-5-yl)-N-methylpyridin-2-amine]
17 | 1 to 10 (≈ 0.375 to 3.75 µg/mL) | 25 to 100 | ≤ 1 | > 100 | ≤ 1 | > 100 | > 100 | ≤ 1 | Cc1cc(-c2[nH]c(N)nc2-c2ccc3c(c2)N(C2CCCC2)CCO3)ccn1 [Example 94, 4-(4-Cyclopentyl-3,4-dihydro-2H-benzo[b][1,4]oxazin-6-yl)-5-(2-methylpyridin-4-yl)-1H-imidazol-2-amine]
18 | 1 to 10 (≈ 0.351 to 3.51 µg/mL) | > 100 | 1 to 10 (≈ 0.351 to 3.51 µg/mL) | > 100 | ≤ 1 | > 100 | > 100 | ≤ 1 | Cc1cc(-c2nc(N)[nH]c2-c2ccc3c(c2)N(CCO)CCO3)ccn1 [Example 90, 2-(6-(2-Amino-4-(2-methylpyridin-4-yl)-1H-imidazol-5-yl)-2,3-dihydro-4H-benzo[b][1,4]oxazin-4-yl)ethan-1-ol]
